Here are results for 19 compounds from US12637471B2, “Heterocyclic compounds, compositions, methods of preparation and uses thereof” (Organon R&D Finland Ltd, priority 2021, dated 2026).

Common to all, as to assay type: biochemical
The target in assay [1] is T1, Recombinant human AKR1C3 (17β-HSD5) protein (Homo sapiens, UniProt P42330).
T1 construct: made in house; host or cells: E. coli
T1 sequence (P42330 1-323): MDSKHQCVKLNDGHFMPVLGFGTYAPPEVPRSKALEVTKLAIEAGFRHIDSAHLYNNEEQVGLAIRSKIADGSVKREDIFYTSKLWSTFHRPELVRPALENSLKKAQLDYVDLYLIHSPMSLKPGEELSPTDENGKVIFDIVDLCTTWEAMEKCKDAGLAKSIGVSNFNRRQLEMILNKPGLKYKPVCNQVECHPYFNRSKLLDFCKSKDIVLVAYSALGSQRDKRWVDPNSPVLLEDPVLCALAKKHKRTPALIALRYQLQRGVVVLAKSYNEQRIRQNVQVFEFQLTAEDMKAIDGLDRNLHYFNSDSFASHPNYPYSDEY
As to the kind of experiment: Inhibition of AKR1C3 (17β-hydroxysteroid dehydrogenase type 5) enzyme, fluorescence assay. Conditions: inhibitor at 500 nM. Put shortly:
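E. coli-expressed human AKR1C3 (27 nM) in 20 mM KH2PO4, 1 mM EDTA, pH 7.4, with 1 μM pyranoquinolinone ketone substrate, 1 mM NADPH and inhibitor at 500 nM, 1% DMSO, 60–120 min at RT. Fluorescent alcohol product (ex 420/em 510 nm) quantified against standards; inhibition derived from conversion percentages.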

In assay [2] the target is T2, Recombinant human aldo-keto reductase family 1 member C2 (AKR1C2) protein (Homo sapiens, UniProt P52895).
T2 construct: made in house; host or cells: Sf-9 insect cells (baculovirus)
T2 sequence (P52895 1-323): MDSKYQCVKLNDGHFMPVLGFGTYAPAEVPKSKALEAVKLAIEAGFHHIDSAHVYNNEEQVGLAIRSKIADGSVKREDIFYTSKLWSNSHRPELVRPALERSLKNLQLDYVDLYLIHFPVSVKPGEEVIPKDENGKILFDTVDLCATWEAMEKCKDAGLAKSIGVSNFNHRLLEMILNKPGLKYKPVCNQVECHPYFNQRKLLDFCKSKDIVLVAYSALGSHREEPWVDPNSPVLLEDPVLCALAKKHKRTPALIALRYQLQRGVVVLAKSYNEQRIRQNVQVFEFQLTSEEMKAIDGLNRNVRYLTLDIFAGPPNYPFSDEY
As to the kind of experiment: Inhibition of the aldo-keto reductase family 1 member C2, 3H-dihydrotestosterone conversion. As to conditions: inhibitor at 10 μM. In a few lines: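 Sf-9-expressed enzyme (13.6 nM) incubated 45 min at 37 °C in 20 mM KH2PO4 pH 7.4 with 1 mM NADPH, 6.25 nM [3H]dihydrotestosterone and 10 μM compound (1% DMSO). After TCA stop, substrate and 5α-androstane-3α,17β-diol resolved by UPLC with radio-detection; inhibition from percent conversion.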

Assay [3] addresses T3, 17β-Hydroxysteroid Dehydrogenase Type 2 Enzyme (17β-HSD2) (Homo sapiens, UniProt P37059).
T3 construct: made in house; host or cells: Sf-9 insect cells (baculovirus)
T3 sequence (P37059 1-387): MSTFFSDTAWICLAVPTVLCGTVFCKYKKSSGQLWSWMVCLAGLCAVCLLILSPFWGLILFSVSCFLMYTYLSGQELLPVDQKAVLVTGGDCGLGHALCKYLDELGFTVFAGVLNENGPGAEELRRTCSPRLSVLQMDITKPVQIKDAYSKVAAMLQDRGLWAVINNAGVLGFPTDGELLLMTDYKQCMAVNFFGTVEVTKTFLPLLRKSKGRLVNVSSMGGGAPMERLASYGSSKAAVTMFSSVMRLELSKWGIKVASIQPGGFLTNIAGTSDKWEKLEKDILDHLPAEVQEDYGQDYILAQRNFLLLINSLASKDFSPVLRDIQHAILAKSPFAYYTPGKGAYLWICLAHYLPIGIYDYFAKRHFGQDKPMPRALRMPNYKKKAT
As to the kind of experiment: Inhibition of the 17β-hydroxysteroid dehydrogenase type 2 enzyme, 3H-testosterone conversion. Conditions: inhibitor at 10 μM. Put shortly:
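Recombinant human 17β-HSD2 (Sf-9/baculovirus; 105 nM) incubated with 56.25 nM ³H-testosterone and 1 mM NAD in 20 mM KH2PO4 pH 8.5, 1 mM EDTA, 1% DMSO, 30 min at RT, inhibitor 10 μM. Reaction stopped with TCA; conversion to ³H-androstenedione by radio-UPLC gives percent inhibition.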

One may read the inhibition as the drop in the measured response relative to a control, in per cent.

Turning to `N#CC(=C1CCN(C(=O)N2CCc3cc(F)ccc32)CC1)c1ccc(F)cc1` [Compound 109, 2-(1-(5-fluoroindoline-1-carbonyl)piperidin-4-ylidene)-2-(4-fluorophenyl)acetonitrile], the inhibition at 0.5 µM in assay [1] is 96%. Besides, the inhibition at 10 µM in assay [2] is 12%; in assay [3] it was 26%.

As to `N#CC(=C1CCN(C(=O)N2CCc3sccc3C2)CC1)c1ccc(F)cc1F` [Compound 112, 2-(2,4-difluorophenyl)-2-(1-(4,5,6,7-tetrahydrothieno[3,2-c]pyridine-5-carbonyl)piperidin-4-ylidene)acetonitrile], the inhibition at 0.5 µM in assay [1] amounted to 96%. Further, the inhibition at 10 µM in assay [2] is 30%; in assay [3], 17%.

Consider `N#CC(=C1CCN(C(=O)N2CC(C#N)C2)CC1)c1ccc(F)c(F)c1` [Compound 36, 1-(4-(cyano(3,4-difluorophenyl)methylene)piperidine-1-carbonyl)azetidine-3-carbonitrile], for which the inhibition at 0.5 µM in assay [1] was 94%. The values for the inhibition at 10 µM in assay [2] and in assay [3] were 10% and -3%, respectively.

For the compound `CCOC1CCN(C(=O)N2CCC(=C(C#N)c3cccc4[nH]ncc34)CC2)CC1` [Compound 92, 2-(1-(4-ethoxypiperidine-1-carbonyl)piperidin-4-ylidene)-2-(1H-indazol-4-yl)acetonitrile], the inhibition at 0.5 µM in assay [1] turned out to be 96%. The inhibition at 10 µM in assay [2] was 6%; in assay [3] it was 30%.

Regarding `N#CC(=C1CCN(C(=O)N2CCC(O)CC2)CC1)c1ccc(C(F)(F)F)cc1` [Compound 127, 2-(1-(4-hydroxypiperidine-1-carbonyl)piperidin-4-ylidene)-2-(4-(trifluoromethyl)phenyl)acetonitrile], the inhibition at 0.5 µM in assay [1] is 96%. Besides, the inhibition at 10 µM in assay [2] was -6%; in assay [3], 5%.

Regarding `N#CC(=C1CCN(C(=O)N2CCc3[nH]ncc3C2)CC1)c1ccc(OC(F)(F)F)cc1` [Compound 54, 2-(1-(4,5,6,7-tetrahydro-1H-pyrazolo[4,3-c]pyridine-5-carbonyl)piperidin-4-ylidene)-2-(4-(trifluoromethoxy)phenyl)acetonitrile], the inhibition at 0.5 µM in assay [1] turned out to be 99%. The figures for the inhibition at 10 µM in assay [2] and in assay [3] were 15% and 20%, respectively.

On to `N#CC(=C1CCN(C(=O)N2CCn3ncnc3C2)CC1)c1cccc(Cl)c1` [Compound 157, 2-(3-chlorophenyl)-2-(1-(5,6,7,8-tetrahydro-[1,2,4]triazolo[1,5-a]pyrazine-7-carbonyl)piperidin-4-ylidene)acetonitrile], for which the inhibition at 0.5 µM in assay [1] came to 99%. Further, the inhibition at 10 µM in assay [2] amounted to 2%; in assay [3] it was 8%.

As for `N#CC(=C1CCN(C(=O)N2CCC(O)CC2)CC1)c1ccc(Cl)cn1` [Compound 62, 2-(5-chloropyridin-2-yl)-2-(1-(4-hydroxypiperidine-1-carbonyl)piperidin-4-ylidene)acetonitrile], the inhibition at 0.5 µM in assay [1] came to 90%. Besides, the figures for the inhibition at 10 µM in assay [2] and in assay [3] were -4% and 4%, respectively.

Turning to `N#CC(=C1CCN(C(=O)N2CCSCC2)CC1)c1ccc(F)cc1` [Compound 100, 2-(4-fluorophenyl)-2-(1-(thiomorpholine-4-carbonyl)piperidin-4-ylidene)acetonitrile], the inhibition at 0.5 µM in assay [1] is 92%. For the same compound, the values for the inhibition at 10 µM in assay [2] and in assay [3] were 6% and -2%, respectively.

`N#CC(=C1CCN(C(=O)N2CCC(CO)CC2)CC1)c1ccc(C(F)(F)F)cc1` [Compound 76, 2-(1-(4-(hydroxymethyl)piperidine-1-carbonyl)piperidin-4-ylidene)-2-(4-(trifluoromethyl)phenyl)acetonitrile]: in assay [1], the inhibition at 0.5 µM is 99%. The inhibition at 10 µM is 6% in assay [2] and 20% in assay [3].

With `N#CC(=C1CCN(C(=O)N2CCC(CCO)CC2)CC1)c1cccc(Cl)c1` [Compound 140, 2-(3-chlorophenyl)-2-(1-(4-(2-hydroxyethyl)piperidine-1-carbonyl)piperidin-4-ylidene)acetonitrile], in assay [1], the inhibition at 0.5 µM was found to be 96%. In addition, the inhibition at 10 µM was 21% in assay [2] and 23% in assay [3].

`N#CC(=C1CCN(C(=O)N2CCOCC2)CC1)c1ccc(F)cc1` [Compound 1, 2-(4-fluorophenyl)-2-(1-(morpholine-4-carbonyl)piperidin-4-ylidene)acetonitrile]: the inhibition at 0.5 µM in assay [1] amounted to 99%. Besides, the inhibition at 10 µM was 5% in assay [2] and 2% in assay [3].

For `N#CC(=C1CCN(C(=O)N2CCC(S(N)(=O)=O)CC2)CC1)c1ccc(Cl)s1` [Compound 77, 1-(4-((5-chlorothiophen-2-yl)(cyano)methylene)piperidine-1-carbonyl)piperidine-4-sulfonamide], the inhibition at 0.5 µM in assay [1] came out at 96%. In addition, the inhibition at 10 µM in assay [2] was 24%; in assay [3] it was 19%.

As to `N#CC(=C1CCN(C(=O)N2CCn3nncc3C2)CC1)c1ccc(F)cc1` [Compound 13, 2-(4-fluorophenyl)-2-(1-(4,5,6,7-tetrahydro-[1,2,3]triazolo[1,5-a]pyrazine-5-carbonyl)piperidin-4-ylidene)acetonitrile], the inhibition at 0.5 µM in assay [1] was determined as 99%. Moreover, the inhibition at 10 µM in assay [2] was determined as 19%; in assay [3] it was 7%.

On to `N#CC(=C1CCN(C(=O)N2CCc3sccc3C2)CC1)c1ccc(Cl)cn1` [Compound 66, 2-(5-chloropyridin-2-yl)-2-(1-(4,5,6,7-tetrahydrothieno[3,2-c]pyridine-5-carbonyl)piperidin-4-ylidene)acetonitrile], for which the inhibition at 0.5 µM in assay [1] turned out to be 96%. The inhibition at 10 µM in assay [2] is 8%; in assay [3] it was 12%.

On to `N#CC(=C1CCN(C(=O)N2C[C@@H]3CC[C@@H]2C3)CC1)c1ccc(F)cc1F` [Compound 111, 2-(1-((1R,4R)-2-azabicyclo[2.2.1]heptane-2-carbonyl)piperidin-4-ylidene)-2-(2,4-difluorophenyl)acetonitrile], for which the inhibition at 0.5 µM in assay [1] worked out at 95%. The inhibition at 10 µM in assay [2] is 13%; in assay [3], 8%.

For the compound `N#CC(=C1CCN(C(=O)N2CCC(O)CC2)CC1)c1ccc(F)c(F)c1` [Compound 41, 2-(3,4-difluorophenyl)-2-(1-(4-hydroxypiperidine-1-carbonyl)piperidin-4-ylidene)acetonitrile], the inhibition at 0.5 µM in assay [1] worked out at 96%. The inhibition at 10 µM in assay [2] and in assay [3] was 7% in each case.

In the case of `N#CC(=C1CCN(C(=O)N2CCC(C(F)(F)F)CC2)CC1)c1cccc2[nH]ncc12` [Compound 145, 2-(1H-indazol-4-yl)-2-(1-(4-(trifluoromethyl)piperidine-1-carbonyl)piperidin-4-ylidene) acetonitrile], the inhibition at 0.5 µM in assay [1] came out at 97%. The results for the inhibition at 10 µM in assay [2] and in assay [3] were 1% and 9%, respectively.

In the case of `N#CC(=C1CCN(C(=O)N2CCn3cccc3C2)CC1)c1ccc(F)cc1` [Compound 28, 2-(4-fluorophenyl)-2-(1-(1,2,3,4-tetrahydropyrrolo[1,2-a]pyrazine-2-carbonyl)piperidin-4-ylidene)acetonitrile], the inhibition at 0.5 µM in assay [1] was found to be 97%. Further, the inhibition at 10 µM worked out at 8% in assay [2] and 27% in assay [3].
